Source: US20050033056A1, “Hydroxylated indole derivatives and uses thereof” (priority 2001, published 2005)

Biological target: CYP2D6 (Homo sapiens, UniProt P10635)
Test: CYP inhibition in HLM: bufuralol 1'-hydroxylation
Format: in vitro ADME
Set-up: tissue Gentest Corp. (Woburn, Mass.); host or cells: pooled human liver microsomes
Settings: in the presence of Compound 1, concentration-dependent
Method: The incubations were carried out in test tubes (12.0×75 mm). The incubation mixtures (250 μL) contained 0.5 mg of HLM protein, 50 (CYP1A2 and CYP2E1) or 25 (CYP2C9, CYP2C19, CYP2D6 and CYP3A4) pmol of recombinant human CYPs, Compound 1 (10 or 50 μM), probe substrate (R—, S-warfarin, chlorzoxazone, S-mephenyloin, or bufuralol) at different concentrations, and 0.5 mg of NADPH in 50 mM Tris buffer containing 15 mM MgCl2 (pH 7.4). Compound 1 was added to the reaction mixture 5 minutes prior to the addition of the probe substrate. […]
The quantification was based on the calibration curves, and the quality control (QC) samples were applied to ensure the quality of the experiments. […]
3. […] Multiple reaction monitoring (MRM) was applied for the quantification. […]
Data were acquired and analyzed by ChemStation (Version 6.03, Hewlett Packard, Waldbronn, Germany) for 6-, 7-, and 10-hydroxywarfarin and 6-hydroxychlorzoxazone, and MacQuan (Version 1.6, PE Biosystem, Foster City, Calif.) for 1′-hydroxybufuralol and 4′-hydroxymephenytoin. Quantification was based on peak area ratios of metabolites over the respective IS against the respective concentration of the metabolites. […] The metabolic rates were determined using Excel (Microsoft Office 97, Microsoft Corporation, Redmond, Wash.) or SigmaPlot (Version 6.00, SPSS Inc. Chicago, Ill.). […]

Sequence of CYP2D6 (P10635 whole entry): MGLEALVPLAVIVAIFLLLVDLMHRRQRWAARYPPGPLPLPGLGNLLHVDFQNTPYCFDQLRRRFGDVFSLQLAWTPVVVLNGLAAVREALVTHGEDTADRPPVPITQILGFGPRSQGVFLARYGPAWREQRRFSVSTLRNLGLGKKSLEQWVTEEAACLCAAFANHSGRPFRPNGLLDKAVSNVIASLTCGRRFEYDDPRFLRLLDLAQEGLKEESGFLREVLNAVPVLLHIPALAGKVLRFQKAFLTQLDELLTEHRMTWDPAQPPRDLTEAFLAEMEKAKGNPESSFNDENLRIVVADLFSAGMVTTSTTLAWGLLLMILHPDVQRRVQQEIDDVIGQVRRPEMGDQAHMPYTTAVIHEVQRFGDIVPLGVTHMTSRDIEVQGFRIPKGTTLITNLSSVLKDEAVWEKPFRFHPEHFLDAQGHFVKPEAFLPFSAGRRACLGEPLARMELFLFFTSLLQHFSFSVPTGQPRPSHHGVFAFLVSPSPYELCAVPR

CNC(=O)Cc1ccc2ccn(C3CCN(CCc4ccccc4F)CC3)c2c1 [Compound 1, N-methyl-[1-[1-(2-fluorophenethyl)piperidine-4-yl]-1H-indol-6-yl] acetamide]
effect on CYP2D6-mediated bufuralol 1'-hydroxylation activity (in words): significantly reduced
